In paper PMC3858832 (Journal of Controlled Release, 2013):
Where no end group is shown, it is not given here.

Columns and labels:
[1] = Far-UV circular dichroism pH titration, midpoint of conformational transition (pKα); type: physicochemical; conditions: far-UV CD intensity at 220 nm vs pH; peptide 30-50 μM in 5 mM Tris amine titrated with HClO4; 37 °C (310 K); average of two or more independent experiments
Description: Therefore, we first investigated whether reducing hydrogen-bonding opportunities at the Dap side chain amine would improve its tolerance by cells in culture. Alkylation of the Dap primary amine may however also impact on the pKa. […] Measurement of side chain pKa in a peptide undergoing a conformational transition associated with a change in aggregation state is hindered by the large amounts of material required for potentiometric analyses and the unfavourable line broadening observed in NMR for self-associated peptides. Instead, we have observed the cooperative, pH responsive, change of conformation of cationic amphipathic peptides in aqueous solution using far-UV CD (Supp. Fig. 1B/C). LADap (Sup. Fig. 1B) and LADap(Me2) (Supp. Fig. 1C) adopt an α-helix conformation when dissolved in neutral or slightly basic aqueous solution and, when titrated with acid, an increasingly disordered conformation is observed. The CD intensity at 220 nm is considered indicative of α-helix content and can be plotted as a function of pH (Supp. Fig. 1D/E). […] Although other interactions may be expected to contribute to the pKα when compared with the pKa, an increase of the same magnitude (~ 0.6 pH units) is seen in both the pKα for the Dap rich peptide and the pKa for the model compound following dimethylation (Supp. Fig. 1D/E; Table 1).
Far-UV CD spectra were obtained for LAH4-L1, LAH6-L1 and the Dap and mono-methyl Dap containing analogues in aqueous Tris amine buffer at various pH (Supp. Fig. 4). […] For LAH4-L1, the pKα = 5.29 ± 0.25 and is in agreement with previous work while pKα = 4.45 ± 0.25 for LAH6-L1 is substantially higher than that reported recently for LAH6 peptides of greater hydrophobicity. The response of LADap4-L1 at 6.64 ± 0.08 is substantially more basic than the histidine-containing analogue. […]
Circular dichroism experiments - Peptides were dissolved in 5 mM Tris amine without pH adjustment at a final concentration of between 30 and 50 μM. The samples were titrated down by adding 0.3% or 1% (v/v) HClO4 solution in micro-litre amounts. ClO4- is optically […]
by HClO4 makes a significant improvement on spectral quality in the far-UV region. CD spectra were acquired on a Chirascan™ Spectrometer (Applied Photophysics, Leatherhead, UK) with samples maintained at 310 K. For pH titration experiments, far-UV CD spectra were obtained with the samples titrated down by adding 0.3% or 1% (v/v) HClO4 solution in micro-litre amounts. Spectra were recorded from 260 to 180 nm using a 0.5 mm path length and were processed using Chirascan software where a spectrum of the peptide free solution was subtracted and Savitzky-Gorlay smoothing with a convolution width of 5 points applied.
Results for all CD assay measurements are expressed as an average of two or more independent repeated experiments. […]
The pellets, containing lipid vesicles and associated peptides were transferred to Bruker 4 mm MAS rotors for NMR measurements. Lipid vesicles were also prepared in this way in the absence of peptide.
Solid-state NMR - 2H quadrupole echo experiments for samples containing either POPC-d31 or POPS-d31 were performed at 61.46 MHz on a Bruker Avance 400 NMR

[2] = Solubility in aqueous media / 50% trifluoroethanol; type: physicochemical
Procedure: (§1) A further six N,N-dimethyl-Dap variant, LADap(Me2)6-A1 was prepared in an attempt to circumvent this by reducing the hydrophobicity by substituting four leucines with alanine.
Supplementary Figure 6. far-UV CD spectrum of LADap(Me2)6-L1 in 50% TFE.
A further six N,N-dimethyl-Dap variant, LADap(Me2)6-A1 was prepared in an attempt to circumvent this by reducing the hydrophobicity by substituting four leucines with alanine. While a small improvement in […]
spectrum was obtained (Supp. Fig. 6) which indicated the desired α-helix conformation would theoretically be obtainable if it could be delivered to the endosomal membrane.
(§2) (1 picture or pasted object on this page, not shown here)

[3] = Analytical HPLC retention time as indicator of peptide hydrophobicity; type: physicochemical; conditions: 5-90% water/acetonitrile gradient, Waters Symmetry C8, 5 μm, 7.8 x 100 mm, Abs 215 nm
Procedure: as §1
Supplementary Figure 5. Analytical HPLC of three Dap rich peptides with differing levels of alkylation. A 5-90% water/acetonitrile gradient system was used using a Waters Symmetry™ C8, 5 μm, 7.8 x 100 mm column. The N-methylation of LADap-6-L1 to LADap(Me)6-L1 reduces the retention time of the peptide marginally however N,N-dimethylation to LADap(Me2)6-L1 causes a substantial shift to longer retention time and is consistent with the insolubility of this latter peptides in aqueous media. A fourth peptide, […]
alanine residues did improve hydrophobicity but not sufficiently to make the peptide readily soluble in […]
as §2

[4] = system: GAPDH expression in A549 cells; test: siRNA-mediated silencing of GAPDH expression in A549 cells (Western blot densitometry), with or without BALF; type: cell-based, human; conditions: Western blot densitometry 72 h post transfection
Procedure: (§3) The abilities of the peptides to successfully mediate specific silencing of GAPDH expression were then assessed in A549 cells (Fig. 2B), MCF-7 cells (Fig. 2C), HUVEC (Fig. 3A), THP-1 cells differentiated into macrophages (Fig. 4A) and undifferentiated THP-1 cells in suspension (Fig. 4B). Specific reductions in expression of GAPDH were assessed by densitometry of Western blots where the effects of administering siRNA targeting GAPDH was compared with that of non-targeting siRNA on the expression of GAPDH as endogenous reporter and β-actin as internal toxicity/specificity control (Figs. 2D, 3B, 4C).
To test the suitability of the peptides for future pulmonary delivery applications in vivo the ability of the peptides to mediate silencing of GAPDH expression in A549 cells was repeated in the presence of bronchoalveolar lavage fluid (BALF) as a model for airway surface liquid (ASL) (Fig. 2E/F).
(§4) siRNA transfection - A549, MCF-7 and THP-1 cells, were transfected with peptide/siRNA
complexes containing 50 or 100 pmol GAPDH siRNA or negative control siRNA/well in 6-
well plates, giving a final siRNA concentration of 50 or 100 nM. Cells were seeded at the
following densities; A549 and MCF-7 - 1 × 10^5 cells per well, THP-1 in suspension – 5 ×
10^5 cells per well, differentiated THP-1 – 1 × 10^6 cells per well.

[5] = system: A549 cells; test: Luciferase reporter gene transfection of A549 cells; type: cell-based, human; conditions: light units per well
Description: The ability of the peptides to mediate nucleic acid transfer was first assessed by monitoring the delivery of luciferase reporter gene to both A549 and MCF-7 human breast cancer cells (Fig. 2A). Lipofectamine 2000™ was used here as a benchmark and at an optimised volume to weight DNA ratio of 2:1 to minimise toxicity seen in the earlier experiments (Supp. Fig. 1H).
(§5) Further Materials - Dulbecco’s modified eagle medium (DMEM), RPMI-1640 medium,
(§6) Opti-MEM 1 reduced serum medium, antibiotic-antimycotic liquid, fetal bovine serum (FBS)
(§7) and Lipofectamine 2000™ were purchased from Invitrogen (CA, USA). The luciferase assay
(§8) system was purchased from Promega (Madison, WI, USA).
Plasmid DNA (gWIZ™ Luciferase) was
(§9) Cell culture and DNA transfection - A549, MCF-7 and THP-1 cells were obtained from
(§10) ATCC (Manassas, VA, USA). The cells were maintained at 5% CO2, 37°C in DMEM
(§11) supplemented with 10% FBS, 100 units/ml penicillin, 100 μg/ml streptomycin and 0.25
(§12) μg/ml amphotericin B. The cells were subcultured once weekly. Cells were transfected with
(§13) peptide/DNA complexes at 1 μg luciferase /well in 24-well plates and with peptide to DNA
(§14) seeding density was 5 × 10^4 cells per well. The complexes were prepared in Opti-MEM I
reduced serum medium. After 4 hours of incubation at 37°C, the cells were washed with PBS […]
luciferase expression was detected using the luciferase assay system according to the […]

[6] = system: GAPDH expression in suspension monocyte THP-1 cells; test: siRNA-mediated silencing of GAPDH expression in suspension monocyte THP-1 cells (Western blot densitometry); type: cell-based, human; conditions: siRNA at 20 or 40 nM, peptide/siRNA 10:1 w/w, Western blot 72 h, three independent experiments
Procedure: as §3
Cells were transfected with peptide/siRNA complexes containing GAPDH siRNA (+) or negative control siRNA (−) and β-actin served as an internal control for equal protein loading and off target effects. Densitometry results are shown for as an average of three independently repeated experiments (C). […] Vectors were prepared as for siRNA transfection experiments and the peptide to siRNA weight ratio was 10:1 in all cases.
The cells were transfected with Lipofectamine 2000™ at 2 μl per
well under the same conditions.
as §4
complexes containing 50 or 100 pmol GAPDH siRNA or negative control siRNA/well in 6- […]
The bound secondary antibodies were detected with ECL™ Western blotting detection […]

[7] = system: A549 cells; test: Protein content per well as measure of cytotoxicity during transfection of A549 cells; type: cell-based, human; conditions: luciferase plasmid transfection, compared with LADap(Me2)
Description: The pKα of LADap(Me2) is raised by N,N-dimethylation and is likely to be too high to substantially aid endosomal release; dimethylation nevertheless has beneficial effects on the nucleic acid transfer properties of the resulting peptide. […] However, the protein content of the cells, commonly used to calibrate the amount of specific luciferase activity, can be misleading. […] Accordingly, the transfection efficacies of LADap and Lipofectamine 2000™ (4:1) in this experiment are substantially overstated. When luciferase activity is plotted per well (Supp. Fig. 1H), not only is the robust and non-toxic transfection efficacy of LAH4-L1 evident, offering a 13.0 fold improvement over Lipofectamine 2000™, but also the advantages of LADap(Me2) over LADap are clear. The luciferase delivery efficacy of LADap(Me2) however was insufficient for it to be considered for siRNA delivery and further modifications were conceived.
Luciferase Activity (light units/10 s)
Luciferase Activity (light units/10 s/mg protein)
Mean Residue Ellipticity @220 nm (deg cm […]
Supplementary Figure 1. […] The midpoint of the conformational transition is determined as 6.22 ± 0.16 for LADap4 (D) and 6.80 ± 0.11 for LADap(Me2)4 (E). […] Lipofectamine and LADap4 are toxic to A549 cells but the N,N-dimethylation of Dap (LADap(Me2)4) reduces toxicity and increases gene transfer efficacy despite the high pKα determined in […]

[8] = system: MCF-7 cells; test: Luciferase reporter gene transfection of MCF-7 cells; type: cell-based, human; conditions: 1 μg luciferase plasmid/well, 48 h
Description: The ability of the peptides to mediate nucleic acid transfer was first assessed by monitoring the delivery of luciferase reporter gene to both A549 and MCF-7 human breast cancer cells (Fig. 2A).
as §5, §6, §7, §8
Plasmid DNA (gWIZ™ Luciferase) was
as §9, §10, §11, §12, §13, §14
reduced serum medium. After 4 hours of incubation at 37°C, the cells were washed with PBS
and fresh DMEM supplemented with 10% FBS were added to the cells. After 48 hours, the
luciferase expression was detected using the luciferase assay system according to the
manufacturer’s protocol. The cells were transfected with Lipofectamine 2000™ at 2 μl per […]

## KKLAHALHLLALLWLHLAHALKKA-NH2 [reference compound]
[1]
  pKα at 37 °C (midpoint of the main conformational transition): 5.33

## KKXLLAXLLXLLALLALXLLXALKXK-NH2 [LADap(Me2)6-L1, 26-residue peptide with six N,N-dimethyl-Dap residues]
[2]; 50% trifluoroethanol
  solubility in 50% trifluoroethanol: soluble in 50% trifluoroethanol
[2]
  solubility in aqueous media: insoluble in aqueous media

## KKXLLAXALXALLALLAXLAXALKXK-NH2 [LADap(Me2)6-A1, more hydrophilic six N,N-dimethyl-Dap variant, four leucines substituted with alanine]
[2]
  solubility in aqueous media: insufficiently soluble
[3]
  HPLC retention time (measure of hydrophobicity): 28.37 min

## KKLAXALXLLALLWLXLAXALKKA-NH2 [LADap(Me2), 24-residue cationic amphipathic peptide with four N,N-dimethyl-Dap residues]
[1]
  pKα at 37 °C (midpoint of the main conformational transition): 6.80 ± 0.11

## KKALLAHALHLLALLALHLAHALKKA-NH2 [LAH4-L1, reference compound]
[1]
  pKα at 37 °C (midpoint of the main conformational transition): 5.29 ± 0.25
[4]; 50% BALF
  reduction of GAPDH expression (silencing): 29.4 ± 11.8%
[4]; Opti-MEM I
  reduction of GAPDH expression (silencing): 73.5 ± 3.7%
[5]
  fold improvement in luciferase activity per well over Lipofectamine 2000 (4:1): 13.0 fold

## KKXLLAXLLXLLALLALXLLXALKXK-NH2 [LADap(Me)6-L1, 26-residue peptide with six N-methyl Dap residues]
[6]
  reduction of GAPDH expression: 92.3 ± 3.7%
[4]; Opti-MEM I
  reduction of GAPDH expression (silencing): 88.0 ± 6.8%

## KKXLLAXLLXLLALLALXLLXALKXK-NH2 [LADap6-L1, 26-residue peptide with six Dap residues]
[1]
  pKα at 37 °C (midpoint of the main conformational transition): 5.67 ± 0.17

## KKLAXALXLLALLWLXLAXALKKA-NH2 [LADap, 24-residue cationic amphipathic peptide with four Dap residues]
[7]
  cytotoxicity by protein content of wells: notably more toxic
[1]
  pKα at 37 °C (midpoint of the main conformational transition): 6.22 ± 0.16

## KKALLAXALXLLALLALXLAXALKKA-NH2 [LADap(Me)4-L1, LAH4-L1 derivative comprising four N-methylated Dap residues]
[1]
  pKα at 37 °C (midpoint of the main conformational transition): 6.62 ± 0.04
[8]
  fold improvement in luciferase expression over LADap4-L1: 4.1 fold
  fold improvement in luciferase expression over LAH4-L1: 2.0 fold

## KKHLLAHLLHLLALLALHLLHALKHK-NH2 [LAH6-L1]
[1]
  pKα at 37 °C (midpoint of the main conformational transition): 4.45 ± 0.25

## KKALLAXALXLLALLALXLAXALKKA-NH2 [LADap4-L1, LAH4-L1 derivative comprising four Dap residues]
[1]
  pKα at 37 °C (midpoint of the main conformational transition): 6.64 ± 0.08
